Some test systems named below: CAKI-1 renal; K-562 leukemia; SF-295 CNS; A549 NSCLC; OVCAR-5 ovarian; MOLT-4 leukemia; HOP-62 NSCLC; MALME-3M melanoma; COLO 205 colon.
Holding throughout (test): NCI anticancer screen, dose series, 48 h

Values joined by “and” are separate entries in the source; they are usually repeats but may differ in a detail not shown here. Identical values can stand only once.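 1) Cells in 96-well plates. 2) Compound, 48 h, 5 concentrations. 3) Linear interpolation between surrounding doses. 4) Unreached endpoint = highest concentration. GI50 = concentration required for 50% inhibition of growth. TGI is the concentration that stops growth completely.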

Regarding `CC(C)(C)c1cc(Cc2ccc(S(C)(=O)=O)cc2)c(O)c(C(C)(C)C)c1`, the TGI in the assay with CAKI-1 renal amounted to 29.8 µM; in the assay on K-562 leukemia, 31.6 µM; in the assay on SF-295 CNS, 25.8 µM; with A549 NSCLC it was 24.2 µM; in the assay with OVCAR-5 ovarian it was 27.4 µM; in the assay on MOLT-4 leukemia, 27.4 µM. The TGI in the assay on HOP-62 NSCLC was 29.8 µM; in the assay on MALME-3M melanoma, 32.7 µM.

Regarding `C=C1C2CCCC1C1(S(C)(=O)=O)CCCCC21O` (stereo unspecified), the TGI in the assay on CAKI-1 renal, in the assay with K-562 leukemia, in the assay with SF-295 CNS, in the assay on A549 NSCLC, in the assay with OVCAR-5 ovarian and in the assay with MOLT-4 leukemia was more than 100 µM each time. Moreover, the TGI with COLO 205 colon and in the assay on MALME-3M melanoma was more than 100 µM in each case.

Turning to `O=C1NC(c2cccc3ccccc23)Nc2ccc(Cl)cc21` (stereo unspecified), the GI50 in the assay on CAKI-1 renal was 0.0109 µM; with OVCAR-5 ovarian it was 0.0291 µM. The TGI in the assay with CAKI-1 renal is 11.2 µM; in the assay with SF-295 CNS, 0.0232 µM; in the assay with A549 NSCLC it was more than 100 µM; in the assay with OVCAR-5 ovarian it was 0.085 µM; in the assay with MOLT-4 leukemia, 0.00987 µM; with COLO 205 colon, 0.0175 µM and 0.0795 µM. Further, the figures for the TGI in the assay with HOP-62 NSCLC and in the assay on MALME-3M melanoma were 11.9 µM and 37.7 µM, respectively.

For `Cc1[nH]c2ccccc2c1/C=C/c1c(C)[nH]c2ccccc12`, the TGI in the assay on CAKI-1 renal, with K-562 leukemia, with SF-295 CNS, in the assay on A549 NSCLC, in the assay on OVCAR-5 ovarian and in the assay with MOLT-4 leukemia was more than 100 µM each time. For the same molecule, the TGI in the assay with HOP-62 NSCLC and with MALME-3M melanoma was more than 100 µM each time.

`CN1CCN(CCCCCOc2cc(O)c3c(=O)cc(-c4ccccc4)oc3c2)CC1`: the GI50 is 1.8 µM in the assay with K-562 leukemia; 2.05 µM with SF-295 CNS; 8.18 µM in the assay on A549 NSCLC; 4 µM in the assay with OVCAR-5 ovarian; 3.27 µM in the assay with MOLT-4 leukemia; 1.63 µM in the assay with COLO 205 colon. Also, the GI50 in the assay with HOP-62 NSCLC was 2.96 µM; in the assay on MALME-3M melanoma it was 0.898 µM. Also, the TGI in the assay with K-562 leukemia was determined as 3.68 µM; with SF-295 CNS, 4.16 µM; in the assay with A549 NSCLC it was 26.3 µM; in the assay on OVCAR-5 ovarian, 22.2 µM; in the assay on MOLT-4 leukemia, 12.4 µM; in the assay with COLO 205 colon it was 3.06 µM. Moreover, the values for the TGI with HOP-62 NSCLC and in the assay with MALME-3M melanoma were 8.54 µM and 4.31 µM, respectively.

Take `CC(=O)[CH-]C(=O)c1ccccc1.CC(=O)[CH-]C(=O)c1ccccc1.CC[C@H](CCC(C)[C@H]1CCC2[C@@H]3CC=C4C[C@@H]([O-])CC[C@]4(C)C3CC[C@@]21C)C(C)C.CC[C@H](CCC(C)[C@H]1CCC2[C@@H]3CC=C4C[C@@H]([O-])CC[C@]4(C)C3CC[C@@]21C)C(C)C.Cl.[Ti+4]` (stereo partly specified): the TGI with CAKI-1 renal, with K-562 leukemia, in the assay on SF-295 CNS, in the assay with A549 NSCLC, in the assay on OVCAR-5 ovarian and in the assay on MOLT-4 leukemia was more than 25 µM in each case. The TGI in the assay on COLO 205 colon, with HOP-62 NSCLC and in the assay on MALME-3M melanoma was more than 25 µM in each case.

Turning to `COC1(OC)CCC2(C)OC(c3ccccc3)C1O2` (stereo unspecified), the TGI in the assay on CAKI-1 renal, in the assay with K-562 leukemia, with SF-295 CNS, in the assay on A549 NSCLC, in the assay on OVCAR-5 ovarian and with MOLT-4 leukemia was more than 100 µM in each case. For the same molecule, the TGI in the assay on COLO 205 colon, in the assay on HOP-62 NSCLC and in the assay with MALME-3M melanoma was more than 100 µM each time.

Regarding `N#Cc1ncc(-c2ccc(C(F)(F)F)cc2)c(NC2CCCCCC2)n1`, the GI50 is 18.3 µM with CAKI-1 renal; 9.03 µM in the assay with K-562 leukemia; 27.5 µM in the assay with SF-295 CNS; 47.4 µM with A549 NSCLC; more than 100 µM in the assay on OVCAR-5 ovarian; 7.42 µM in the assay on MOLT-4 leukemia. Moreover, the GI50 is 13.2 µM in the assay with COLO 205 colon, more than 100 µM in the assay on HOP-62 NSCLC and more than 100 µM in the assay on MALME-3M melanoma. In addition, the TGI with CAKI-1 renal, in the assay with K-562 leukemia, with SF-295 CNS, in the assay on A549 NSCLC, in the assay with OVCAR-5 ovarian and in the assay on MOLT-4 leukemia was more than 100 µM each time. The values for the TGI in the assay with COLO 205 colon, in the assay with HOP-62 NSCLC and in the assay on MALME-3M melanoma were 62.1 µM, more than 100 µM and more than 100 µM, respectively.

On to `C=CCc1cc(OC)c(O)c(C(=O)/C=C/c2ccc(OC)c(OC)c2)c1`, for which the TGI with CAKI-1 renal is 58.7 µM; in the assay on K-562 leukemia it was 41.8 µM; with SF-295 CNS, 74.1 µM; in the assay on A549 NSCLC, more than 100 µM; with OVCAR-5 ovarian, 45.4 µM; in the assay on COLO 205 colon, 31.4 µM. Moreover, the TGI in the assay with MALME-3M melanoma worked out at 37 µM.

As to `O=C1CC[C@@H](S(=O)(=O)c2ccccc2)[C@H](/C=C/c2ccccc2)O1`, the TGI with K-562 leukemia, in the assay on SF-295 CNS, in the assay with A549 NSCLC, with OVCAR-5 ovarian, in the assay on MOLT-4 leukemia and in the assay with COLO 205 colon was more than 100 µM throughout. The TGI in the assay on HOP-62 NSCLC and in the assay on MALME-3M melanoma was more than 100 µM in each case.

Values taken from PubChem BioAssay (NCI).
